Patent publication US20070160981A1 (priority 2005, published 2007)

target: T1, SARS-CoV PLP2 (Severe acute respiratory syndrome coronavirus, UniProt P0C6U8); conditions: not given

Compound	percentage of the cleavage after 2 hours of digestion	percentage of the cleavage after 12 hours of digestion	Cleavage % 2 h	Cleavage % 2 hours	Cleavage % 12 h	Cleavage % 12 hours
FRLKGGAPI [FRLKGG-API]	36%	85%	–	–	–	–
FRLKGGAPIK [FRLKGG-APIK]	50%	100%	–	–	–	–
FRLKGGAPIKGV	70%	100%	70.1 ± 7.4%	70 ± 7%	100 ± 0.0%	100%
ISLKGGKIVSTC [Gly2740-Lys2741]	7%	29%	–	7 ± 1%	–	29 ± 4%
LKGGAPIK	11%	45%	–	–	–	–
NNVFRLKGGAPIKGVTFG [N N V F R L K G G A P I K G V T F G]	–	–	–	60.5 ± 0.7%	–	100 ± 0.0%
NVFRLKGGAPIKGVTF [N V F R L K G G A P I K G V T F]	–	–	–	63.0 ± 1.4%	–	100 ± 0.0%
RLKGGAPIKG [RLKGG-APIKG]	–	56%	–	–	–	–

same assay, conditions: pH 6.8

Compound	Cleavage % 2 hours	Cleavage % 12 hours
FRLKGGAPI [FRLKGG-API]	36.2 ± 6.4%	85.1 ± 4.9%
FRLKGGAPIK [FRLKGG-APIK]	49.9 ± 2.6%	100 ± 0.0%
FRLKGGAPIKGV	70.1 ± 7.4%	100 ± 0.0%
LKGGAPIK	11.4 ± 4.3%	44.7 ± 3.5%
RLKGGAPIKG [RLKGG-APIKG]	14.8 ± 4.1%	56.4 ± 5.6%
VFRLKGGAPIK	52.9 ± 3.5%	100 ± 0.0%
VFRLKGGAPIKGVT [V F R L K G G A P I K G V T]	67.6 ± 9.0%	100 ± 0.0%

target: T1, SARS-CoV PLP2; format: biochemical; conditions: not given; remark: another data set of the same source

Compound	found in the screen for inhibitor of SARS-CoV PLP2	effects on the activity of SARS-CoV PLP2	inhibition of SARS-CoV PLP2, in words	IC50	effective in inhibiting SARS-CoV PLP2
Nc1nc(S)c2[nH]cnc2n1 [2-amino-6-mercaptopurine]	found	–	–	–	–
Sc1ncnc2nc[nH]c12 [6-mercaptopurine]	found	–	–	–	–
Cn1cnc([N+](=O)[O-])c1Sc1ncnc2nc[nH]c12 [Azathioprine]	found	–	–	–	–
[Ca] [Ca]	–	no effects	–	–	–
O=NN(CCCl)C(=O)NCCCl [Carmustine]	found	–	–	–	–
[Co] [Co]	–	no effects	–	–	–
S=C([S-])N(Cc1ccccc1)Cc1ccccc1.S=C([S-])N(Cc1ccccc1)Cc1ccccc1.[Zn+2] [Dibenzyl dithiocarbamic Zn]	–	–	effective in inhibiting	–	–
O=C([O-])c1ccccc1-c1c2cc(Br)c(=O)cc-2oc2[c]([Hg+])c([O-])c(Br)cc12.[Na+].[Na+].[OH-] [Merbromin]	found	–	–	–	–
[Mg] [Mg]	–	no effects	–	–	–
[Mn] [Mn]	–	no effects	–	–	–
CCN(C(=S)[S-])c1ccccc1.CCN(C(=S)[S-])c1ccccc1.[Zn+2] [N-ethyl-N-phenyldithiocarbamic acid Zn]	–	–	effective in inhibiting	–	–
[Ni] [Ni]	–	no effects	–	–	–
CN(C)C(=S)SSC(=S)N(C)C [Thiram]	found	–	–	–	–
[Zn+2] [Zinc ion]	–	–	–	1300 nM	–
[O-]n1ccccc1=S.[O-]n1ccccc1=S.[Zn+2] [hydroxypridine-2-thione Zn]	–	–	effective in inhibiting	–	–
cystatin	–	–	–	–	none of them was effective

same assay, conditions: 0.1 mM

Compound	effective in inhibiting SARS-CoV PLP2
CC(=O)N[C@@H](CC(C)C)C(=O)N[C@@H](CC(C)C)C(=O)N[C@H](C=O)CCCNC(=N)N [leupeptin]	none of them was effective

same assay, conditions: 1 mM

Compound	effective in inhibiting SARS-CoV PLP2
CCN1C(=O)C=CC1=O [N-ethylmaleimide]	effective
CC(C)C[C@H](NC(=O)[C@@H](NC(=O)N[C@@H](Cc1ccccc1)C(=O)O)[C@@H]1CCN=C(N)N1)C(=O)N[C@H](C=O)Cc1ccccc1 [chymostatin]	none of them was effective
